Measurements: US11161852B1 (Halia Therapeutics, Inc., priority 2020, dated 2021)

Target: full-length recombinant human NEK7 (Homo sapiens (Human), UniProt Q8TDX7)
Experiment: NEK7 Enzymatic Assay ([33P]-ATP, casein substrate)
Format: biochemical
Method: Casein substrate (from bovine milk, hydrolyzed and partially dephosphorylated mixture of α, β and a caseins, obtained from Sigma Aldrich, catalogue #C4765, diluted in distilled water to a final concentration of 1 mg/mL) and full-length recombinant human NEK7 (expressed by baculovirus in Sf9 insect cells using a N-terminal GST tag, obtained from SignalChem, catalogue #N09-10G, 0.1 μg/μL) were mixed in assay buffer (20 mM Hepes pH 7.5, 10 mM MgCl2, 1 mM EGTA, 0.02% Brij35, 0.02 mg/ml BSA, 0.1 mM Na3VO4, 2 mM DTT, 1% DMSO). Compounds of interest (serial 3-fold dilution in DMSO from 10 μM to 0.5 nM) or vehicle (1% DMSO) were dispensed into the kinase reaction mixture by Acoustic technology (Echo550; nanoliter range). After incubation at room temperature for 20 minutes, the kinase reaction was initiated by addition of [^33P]-ATP (specific activity […]) and the mixture was incubated at room temperature for 2 hours. The reaction was then stopped by spotting the reaction mixture on strips of phosphocellulose P81 paper. Following washing, the radioactivity of the P81 paper was measured and kinase activity data were expressed as the percent remaining kinase activity in test samples compared to vehicle reactions. IC50 values and curve fits were obtained using Prism (GraphPad Software).

Sequence of full-length recombinant human NEK7 (Q8TDX7 whole entry): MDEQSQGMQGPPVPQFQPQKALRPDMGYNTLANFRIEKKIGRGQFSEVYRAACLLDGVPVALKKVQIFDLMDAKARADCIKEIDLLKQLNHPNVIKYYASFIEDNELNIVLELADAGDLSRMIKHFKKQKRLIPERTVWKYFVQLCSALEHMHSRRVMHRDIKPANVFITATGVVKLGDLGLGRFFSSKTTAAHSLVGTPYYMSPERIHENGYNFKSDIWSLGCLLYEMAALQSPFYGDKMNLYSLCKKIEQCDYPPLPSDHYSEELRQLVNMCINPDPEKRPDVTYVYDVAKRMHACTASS

Row | Compound | IC50 [nM]
1 | Cc1cc(NC(=O)Nc2ccc(-c3cn(C4CC4)c4ncnc(N)c34)cc2F)on1 [Example 7, 1-(4-(4-amino-7-cyclopropyl-7H-pyrrolo[2,3-d]pyrimidin-5-yl)-2-fluorophenyl)-3-(3-methylisoxazol-5-yl)urea] | 501 to 1500
2 | Cc1cc(NC(=O)Nc2ccc(-c3cn(C4CC4)c4ncnc(N)c34)cc2F)no1 [Example 8, 1-(4-(4-amino-7-cyclopropyl-7H-pyrrolo[2,3-d]pyrimidin-5-yl)-2-fluorophenyl)-3-(5-methylisoxazol-3-yl)urea] | 501 to 1500
3 | CC(C)(C)c1cc(NC(=O)NC2CCC(c3cn(C4CC4)c4ncnc(N)c34)CC2)on1 (stereo not drawn) [Example 16, 1-(4-(4-amino-7-cyclopropyl-7H-pyrrolo[2,3-d]pyrimidin-5-yl)cyclohexyl)-3-(3-(tert-butyl)isoxazol-5-yl)urea] | > 1500
4 | CC(C)(C)c1csc(NC(=O)Nc2ccc(-c3cn(C4CC4)c4ncnc(N)c34)cc2F)n1 [Example 18, 1-(4-(4-amino-7-cyclopropyl-7H-pyrrolo[2,3-d]pyrimidin-5-yl)-2-fluorophenyl)-3-(4-(tert-butyl)thiazol-2-yl)urea] | > 1500
5 | CC(C)(C)c1cc(NC(=O)Nc2ccc(-c3cn(C4CC4)c4ncnc(N)c34)cc2F)sn1 [Example 20, 1-(4-(4-amino-7-cyclopropyl-7H-pyrrolo[2,3-d]pyrimidin-5-yl)-2-fluorophenyl)-3-(3-(tert-butyl)isothiazol-5-yl)urea] | > 1500
6 | CC(C)(C)c1nsc(NC(=O)Nc2ccc(-c3cn(C4CC4)c4ncnc(N)c34)cc2F)n1 [Example 21, 1-(4-(4-amino-7-cyclopropyl-7H-pyrrolo[2,3-d]pyrimidin-5-yl)-2-fluorophenyl)-3-(3-(tert-butyl)-1,2,4-thiadiazol-5-yl)urea] | > 1500
7 | CC(C)(C)n1cnc(NC(=O)Nc2ccc(-c3cn(C4CC4)c4ncnc(N)c34)cc2F)n1 [Example 22, 1-(4-(4-amino-7-cyclopropyl-7H-pyrrolo[2,3-d]pyrimidin-5-yl)-2-fluorophenyl)-3-(1-(tert-butyl)-1H-1,2,4-triazol-3-yl)urea] | > 1500
8 | Nc1ncnc2c1c(-c1ccc(NC(=O)Nc3cc(C4(C(F)(F)F)CC4)no3)c(F)c1)cn2-c1cccnc1 [Example 24, 1-(4-(4-amino-7-(pyridin-3-yl)-7H-pyrrolo[2,3-d]pyrimidin-5-yl)-2-fluorophenyl)-3-(3-(1-(trifluoromethyl)cyclopropyl)isoxazol-5-yl)urea] | 501 to 1500
9 | Nc1ncnc2c1c(-c1ccc(NC(=O)Nc3cc(C4(C(F)(F)F)CC4)no3)c(F)c1)cn2-c1ccncc1 [Example 25] | 501 to 1500
10 | CCC(CC)c1cc(NC(=O)Nc2ccc(-c3cn(C4CC4)c4ncnc(N)c34)cc2F)on1 [Example 31, 1-(4-(4-amino-7-cyclopropyl-7H-pyrrolo[2,3-d]pyrimidin-5-yl)-2-fluorophenyl)-3-(3-(pentan-3-yl)isoxazol-5-yl)urea] | 301 to 500

Second part, the compound after the results:

Row | IC50 [nM] | Compound
11 | < 150 | 1-(4-(4-amino-7-(2-hydroxy-2-methylpropyl)-7H-pyrrolo[2,3-d]pyrimidin-5-yl)-2-fluorophenyl)-3-(5-(1-(trifluoromethyl)cyclopropyl)isoxazol-3-yl)urea [Example 47]
12 | 151 to 300 | CC(C)(C)c1cc(NC(=O)Nc2ccc(-c3cn(C4COC4)c4ncnc(N)c34)cc2)on1 [Example 1, 1-(4-(4-amino-7-(oxetan-3-yl)-7H-pyrrolo[2,3-d]pyrimidin-5-yl)phenyl)-3-(3-(tert-butyl)isoxazol-5-yl)urea]
13 | < 150 | CC(C)(C)c1cc(NC(=O)Nc2ccc(-c3cn(C4CC4)c4ncnc(N)c34)cc2F)no1 [Example 4, 1-(4-(4-amino-7-cyclopropyl-7H-pyrrolo[2,3-d]pyrimidin-5-yl)-2-fluorophenyl)-3-(5-(tert-butyl)isoxazol-3-yl)urea]
14 | 301 to 500 | Nc1ncnc2c1c(-c1ccc(NC(=O)Nc3cc(C4CC4)on3)c(F)c1)cn2C1CC1 [Example 6]
15 | 301 to 500 | Nc1ncnc2c1c(-c1ccc(NC(=O)Nc3cc(C4(C(F)(F)F)CC4)no3)cc1F)cn2C1CC1 [Example 11, 1-(4-(4-amino-7-cyclopropyl-7H-pyrrolo[2,3-d]pyrimidin-5-yl)-3-fluorophenyl)-3-(3-(1-(trifluoromethyl)cyclopropyl)isoxazol-5-yl)urea]
16 | 151 to 300 | CC(C)(c1cc(NC(=O)Nc2ccc(-c3cn(C4CC4)c4ncnc(N)c34)cc2F)on1)C(F)(F)F [Example 12, 1-(4-(4-amino-7-cyclopropyl-7H-pyrrolo[2,3-d]pyrimidin-5-yl)-2-fluorophenyl)-3-(3-(1,1,1-trifluoro-2-methylpropan-2-yl)isoxazol-5-yl)urea]
17 | 301 to 500 | CC(C)(C)c1cc(NC(=O)Nc2ccc(-c3cn(C4CC4)c4ncnc(N)c34)cc2)on1 [Example 13, 1-(4-(4-amino-7-cyclopropyl-7H-pyrrolo[2,3-d]pyrimidin-5-yl)phenyl)-3-(3-(tert-butyl)isoxazol-5-yl)urea]
18 | 301 to 500 | CC(C)(C)c1nnc(NC(=O)Nc2ccc(-c3cn(C4CC4)c4ncnc(N)c34)cc2F)s1 [Example 19, 1-(4-(4-amino-7-cyclopropyl-7H-pyrrolo[2,3-d]pyrimidin-5-yl)-2-fluorophenyl)-3-(5-(tert-butyl)-1,3,4-thiadiazol-2-yl)urea]
19 | 301 to 500 | CC(C)(C)c1nnc(NC(=O)Nc2ccc(-c3cn(C4CC4)c4ncnc(N)c34)cc2F)o1 [Example 23, 1-(4-(4-amino-7-cyclopropyl-7H-pyrrolo[2,3-d]pyrimidin-5-yl)-2-fluorophenyl)-3-(5-(tert-butyl)-1,3,4-oxadiazol-2-yl)urea]
20 | 301 to 500 | CN1CCC(n2cc(-c3ccc(NC(=O)Nc4cc(C5(C(F)(F)F)CC5)no4)c(F)c3)c3c(N)ncnc32)CC1 [Example 26, 1-(4-(4-amino-7-(1-methylpiperidin-4-yl)-7H-pyrrolo[2,3-d]pyrimidin-5-yl)-2-fluorophenyl)-3-(3-(1-(trifluoromethyl)cyclopropyl)isoxazol-5-yl)urea]
21 | < 150 | CC1(c2cc(NC(=O)Nc3ccc(-c4cn(C5CC5)c5ncnc(N)c45)cc3F)on2)COC1 [Example 27, 1-(4-(4-amino-7-cyclopropyl-7H-pyrrolo[2,3-d]pyrimidin-5-yl)-2-fluorophenyl)-3-(3-(3-methyloxetan-3-yl)isoxazol-5-yl)urea]
22 | 151 to 300 | Nc1ncnc2c1c(-c1ccc(NC(=O)Nc3cc(C(F)(F)F)no3)c(F)c1)cn2C1CC1 [Example 28, 1-(4-(4-amino-7-cyclopropyl-7H-pyrrolo[2,3-d]pyrimidin-5-yl)-2-fluorophenyl)-3-(3-(trifluoromethyl)isoxazol-5-yl)urea]
23 | 301 to 500 | CC(C)(CO)c1cc(NC(=O)Nc2ccc(-c3cn(C4CC4)c4ncnc(N)c34)cc2F)on1 [Example 29, 1-(4-(4-amino-7-cyclopropyl-7H-pyrrolo[2,3-d]pyrimidin-5-yl)-2-fluorophenyl)-3-(3-(1-hydroxy-2-methylpropan-2-yl)isoxazol-5-yl)urea]
24 | 151 to 300 | CCC(C)c1cc(NC(=O)Nc2ccc(-c3cn(C4CC4)c4ncnc(N)c34)cc2F)on1 (stereo not drawn) [Example 30, 1-(4-(4-amino-7-cyclopropyl-7H-pyrrolo[2,3-d]pyrimidin-5-yl)-2-fluorophenyl)-3-(3-(sec-butyl)isoxazol-5-yl)urea]
